Reference: patent US7211567B1, “Composition for preventing and treating type I allergy” (Sunstar, Inc., priority 1999, dated 2007)

Tests used:
[1] = test system: histamine release (CRA-1 anti human FcεRI stimulated human whole blood cells); experiment: Histamine release suppression test using human whole blood; format: cell-based; settings: for histamine release suppression rate: N=3, mean ± SD
Method: Human whole blood was collected from healthy volunteers and heparin was added thereto. A blood sample was prepared by adding 6 parts by weight of a histamine release buffer (Immunotech) to 1 part by weight of the whole blood to which the heparin had been added. 200 μl of the blood sample and 100 μl of a histamine release buffer comprising astragalin (33 μM), kaempferol (33 μM) or epinephrine (1638 μM or 4917 μM) were placed in an Eppendorf tube and allowed to stand for 30 minutes while cooling in ice (final concentration: 11 μM for astragalin, 11 μM for kaempferol, 546 μM or 1639 μM for epinephrine).
Centrifugal separation (3000 rpm, 5 minutes, 4° C.) was then carried out and the supernatant removed, and the resulting cells were again put into 300 μl of a histamine release buffer. 4.5 μl of 1 mg/ml CRA-1 (an anti human FcεRI receptor antibody, Cosmo Bio) was next added to the mixture (final CRA-1 concentration 15 μg/ml), and incubation was carried out for 30 minutes at 37° C. After centrifugation (3000 rpm, 10 minutes, 4° C.), the amount of histamine in the supernatant was measured using a histamine EIA kit (Immunotech). The histamine release suppression rate (%) was then calculated using undermentioned equation 3 from histamine amounts calculated from a calibration curve. The measurements were carried out with N=3, and the measurement values were represented by the mean and standard deviation.
[formula] A: Amount of histamine released from cells to which astragalin/kaempferol/epinephrine added (n mole) B: Amount of histamine released from untreated cells (n mole) C: Amount of histamine released from cells to which only CRA-1 added (n mole)

[2] = test system: passive cutaneous anaphylaxis (auricula swelling); experiment: Suppression of passive cutaneous anaphylaxis (PCA) in mice; format: in vivo, ddY male mice; settings: astragalin 1.25 mg/kg oral
Method: Ten 5-week-old ddY male mice were purchased from Japan SLC, and were reared at a room temperature of 23±3° C. and a humidity of 55±15%, with a 12 hour light-dark cycle (light period 7:00 to 19:00). The mice were kept 5 to a cage, and were fed a standard diet (Labo MR Stock, Nihon Nosan Kogyo K.K.) for a 7-day preliminary period, before being divided into a group to be administered astragalin and a control group each of 5 mice. A 0.025% (w/v) solution of astragalin in distilled water was forcedly orally administered (1.25 mg/5 ml/kg) to the astragalin-administered group using a metal stomach tube, while distilled water was forcedly orally administered (5 ml/kg) to the control group. One hour after the administration, 20 μl of an anti-DNP mouse IgE antibody (10 μg/ml) was intracutaneously injected into the right auricula and 20 μl of physiological saline into the left auricula of each mouse. 24 hours after the intracutaneous injections, 100 μl of DNP-BSA (1 mg/ml) was intravenously injected into the tail of each mouse. 15 minutes later, the thicknesses of the left and right auriculae of each mouse were measured three times using a thickness gauge (Ozaki Seisakusho K.K.). The auricula swelling rate was then calculated for each group using undermentioned equation 1, and the auricula swelling suppression rate was calculated using undermentioned equation 2. The measurement values were represented by the mean and standard deviation.

[3] = test system: atopic dermatitis in NC/Nga mice; experiment: Intake test using NC/Nga mice: dermal symptoms of atopic dermatitis; format: in vivo, NC/Nga male mice; settings: 0.0007% astragalin in diet ad libitum; end of experiment (13 weeks old); 5 mice; control 4 of 5 developed symptoms
Method: NC/Nga mice are conventional grade animals, and atopic dermatitis model mice that spontaneously develop atopic dermatitis. Moreover, the development of atopy is accompanied by a rise in serum IgE level.
(§1) Ten 4-week-old NC/Nga male mice were purchased from Japan SLC, and were reared at a room temperature of 23±3° C. and a humidity of 55±15%, with a 12 hour light-dark cycle (light period 7:00 to 19:00). The mice were kept 5 to a cage, and were fed a standard diet (Labo MR Stock, Nihon Nosan Kogyo K.K.) for a 7-day preliminary period, before being divided into a control group and a group to be administered astragalin, each of 5 mice. The mice were then allowed to eat the following diets ad libitum. Control group: A diet prepared by adding a corn starch (0.0007%, Oriental Enzyme K.K.) to MF powder (Oriental Enzyme K.K.) and then mixing in a mixer.
(§2) Astragalin-administered group: A diet prepared by adding astragalin (0.0007%) to the MF powder and then mixing in a mixer.
The following judgement criteria were used.
Slight inflammation or scratch wounds: 1
Medium degree inflammation, scratch wounds or bleeding: 2
Severe inflammation, scratch wounds or bleeding: 3
For each mouse, the judgement was carried out for each of the head, the shoulders and the back, and then the highest of the three scores was taken as the ‘maximum score’. […]

serum IgE level = experiment: Intake test using NC/Nga mice: serum IgE level; format: in vivo, NC/Nga male mice; settings: 0.0007% astragalin in diet; end of experiment (13 weeks); control 6,018 ng/ml; difference statistically significant
Method: as §1, §2
The serum IgE level was measured at the start of the experiment and then at 2-week intervals until the end of the experiment by collecting blood from the orbit and then using a mouse IgE measurement kit ‘Yamasa’ EIA (lot 702). The serum IgE level measurement values were represented by the mean and standard deviation. The differences between the two groups were tested for statistical significance using t-tests, and a significance level of 5% or less was determined significant.

[4] = test system: IL-4 mRNA expression in human basophilic leukemia cell line (KU812); experiment: Expression of IL-4 mRNA using RT-PCR in KU812 cells; format: cell-based; settings: A23187 ionophore 1 μM
Method: A human basophilic leukemia cell line (KU812) was cultured at 37° C. with 5% CO2 in an RPMI 1640 culture medium (Gibco) containing 10% bovine fetal serum (treated at 56° C. for 30 minutes). The KU812 cells (5×10^5 cells/ml) were then stimulated using astragalin (0, 1.1, 3.3 or 11 μM) and an A23187 ionophore (1 μM). After washing, the total RNA was collected using RNAzol (Biotex, USA). 500 ng of the collected total RNA was mixed with an RT mixture (Perkin Elmer Cetus, USA), and then incubation was carried out for 5 minutes at 99° C. followed by 60 minutes at 37° C. After the RT products had been obtained, PCR amplification was carried out using an IL-4-specific primer and β-actin-specific primer. The products were subjected to migration in 2% agarose gel and stained with ethidium bromide, and then the amount of expression was evaluated.

pollinosis symptoms = experiment: Pollinosis symptom scores in volunteers drinking astragalin solution; format: in vivo, human volunteers; settings: for Impediment to daily life total point score / Nasal congestion total point score / Nasal discharge total point score / Sneezing total point score: mean of 13 volunteers
Method: Thirteen volunteers who had previously experienced pollinosis were asked to drink 240 μg of astragalin (in the form of 1 ml of concentrated persimmon leaf extract) dissolved in a suitable amount (50 to 200 ml) of water or hot water twice a day (morning and evening) starting 14 days before the start of the pollen season and ending 14 days after the start of the pollen season.
Sneezing, nasal discharge, nasal congestion and extent of impediment to daily life were evaluated using a points system both during the 7 days immediately before stopping drinking the astragalin solution (‘while drinking’ below) and during the 7 days immediately after stopping drinking the astragalin solution (‘after stopping drinking’ below).
For sneezing, 1 point was recorded for each sneeze. For nasal discharge, 1 point was recorded each time the nose was blown. […] For extent of impediment to daily life, 3 points were recorded when one could not settle down to work at all, 2 points were recorded when there was some impediment to working, 1 point was recorded when there was little impediment to working, and 0 points were recorded when there was no impediment to working; points were recorded daily.
The total point scores for the 7-day ‘while drinking’ period and the 7-day ‘after stopping drinking’ period are shown in Table 1 below as mean values over the 13 volunteers.

[5] = after stopping drinking (7 days immediately after)
[6] = while drinking (7 days before stopping), 240 μg astragalin twice a day, p 0.003

In the case of `O=c1c(O)c(-c2ccc(O)cc2)oc2cc(O)cc(O)c12` [kaempferol], the “histamine release suppression rate” value ([1]; 11 μM final concentration) is reported as 31±9%.
`CNC[C@H](O)c1ccc(O)c(O)c1` [epinephrine] was tested, and the “histamine release suppression rate” value ([1]; 546 μM final concentration) was 31±3% and the “histamine release suppression rate” value ([1]; 1639 μM final concentration) was 55±4%.
With `O=c1c(O[C@@H]2O[C@H](CO)[C@@H](O)[C@H](O)[C@H]2O)c(-c2ccc(O)cc2)oc2cc(O)cc(O)c12` [astragalin, kaempferol-3-glucoside] the right auricula thickness ([2]; anti-DNP IgE-injected right auricula, 15 min after DNP-BSA i.v., mean ± SD) was 0.286±0.017 mm, the “auricula swelling suppression rate” value ([2]; versus distilled water control) was 33% and the auricula swelling rate ([2]; control 27.2±12.5%) was 18.2±5.0%. For the same compound, the left auricula thickness ([2]; saline-injected left auricula, 15 min after DNP-BSA i.v., mean ± SD) was 0.242±0.013 mm, the “histamine release suppression rate” value ([1]; 11 μM final concentration) was 50±7% and the “histamine release suppression action about the same as that of epinephrine of x times the concentration” value ([1]; astragalin 11 μM versus epinephrine 1639 μM) was about 150 times. For the same compound, the “development of atopic dermatitis symptoms” value [3] was “not one mouse had developed symptoms”, the “serum IgE level” value (serum IgE level) was 1,225 ng/ml and the IL-4 expression ([4]; astragalin 3.3 μM or 11 μM) was “particularly marked effects”. The IL-4 expression ([4]; astragalin 1.1, 3.3 or 11 μM) was “suppressed”, the “Impediment to daily life total point score” value (pollinosis symptoms; [5]) was 10 ± 10 points and the “Nasal congestion total point score” value (pollinosis symptoms; [5]) was 13 ± 11 points. The “Nasal discharge total point score” value (pollinosis symptoms; [5]) was 62 ± 83 points, the “Sneezing total point score” value (pollinosis symptoms; [5]) was 68 ± 79 points and the rough skin condition (pollinosis symptoms; two of the volunteers with rough skin before treatment, while drinking the astragalin solution) was “improved”. The “Sneezing total point score” value (pollinosis symptoms; while drinking (7 days before stopping), 240 μg astragalin twice a day as concentrated persimmon leaf extract, p 0.001) was 23 ± 21 points, the “Nasal congestion total point score” value (pollinosis symptoms; [6]) was 3 ± 3 points and the “Nasal discharge total point score” value (pollinosis symptoms; [6]) was 21 ± 26 points. For the same compound, the “Impediment to daily life total point score” value (pollinosis symptoms; while drinking (7 days before stopping), 240 μg astragalin twice a day, p 0.005) was 1 ± 2 points.
